Converted amounts (≈) assume the structure as drawn.
Legend:
[1] = Intrinsic clearance in human liver microsomes after 10 to 60 mins in absence of NADPH by LC/MS/MS analysis; assay type: ADME, microsome; conditions: read-out: CLH
[2] = Intrinsic clearance in human liver microsomes after 10 to 60 mins in presence of NADPH by LC/MS/MS analysis; assay type: ADME, microsome; conditions: read-out: CLH
Staphylococcus aureus [3] = test: Bactericidal activity against methicillin/ciprofloxacin/clindamycin-resistant Staphylococcus aureus USA100 NRS382 clinical isolate after 24 hrs; assay type: functional; conditions: for MBC: USA100 NRS382, 24 h
Staphylococcus aureus [4] = test: Antibacterial activity against methicillin-resistant Staphylococcus aureus 2658 RCMB after 18 to 20 hrs by broth microdilution method; assay type: functional
Staphylococcus aureus [5] = test: Bactericidal activity against methicillin/ciprofloxacin/gentamicin/clindamycin-resistant Staphylococcus aureus USA200 NRS383 clinical isolate after 24 hrs; assay type: functional; conditions: for MBC: USA200 NRS383, 24 h
Staphylococcus aureus [6] = test: Antibacterial activity against methicillin/ciprofloxacin/clindamycin-resistant Staphylococcus aureus USA100 NRS382 clinical isolate after 18 to 20 hrs by broth microdilution method; assay type: functional
Staphylococcus aureus [7] = test: Antibacterial activity against methicillin/ciprofloxacin/gentamicin/clindamycin-resistant Staphylococcus aureus USA200 NRS383 clinical isolate after 18 to 20 hrs by broth microdilution method; assay type: functional
[8] = Half life in human liver microsomes after 10 to 60 mins in absence of NADPH by LC/MS/MS analysis; assay type: ADME, microsome
Staphylococcus aureus [9] = test: Bactericidal activity against mupirocin/rifampicin-resistant Staphylococcus aureus RN4220 NRS107 clinical isolate after 24 hrs; assay type: functional; conditions: RN4220 NRS107, 24 h
Staphylococcus aureus [10] = test: Antibacterial activity against methicillin-resistant Staphylococcus aureus USA400 NRS123 clinical isolate after 18 to 20 hrs by broth microdilution method; assay type: functional
Staphylococcus aureus [11] = test: Bactericidal activity against methicillin/erythromycin/tetracycline-resistant Staphylococcus aureus USA300 NRS384 clinical isolate after 24 hrs; assay type: functional; conditions: for MBC: USA300 NRS384, 24 h
Staphylococcus aureus [12] = test: Antibacterial activity against mupirocin/rifampicin-resistant Staphylococcus aureus RN4220 NRS107 clinical isolate after 18 to 20 hrs by broth microdilution method; assay type: functional
HaCaT [13] = test: Cytotoxicity against human HaCaT cells assessed as decrease in cell viability at 64 ug/ml after 2 hrs by MTS assay; assay type: cell-based
Staphylococcus aureus [14] = test: Bactericidal activity against methicillin-resistant Staphylococcus aureus USA400 NRS123 clinical isolate assessed as time required to reduce 3 log10CFU of bacterial load at 4 times MIC by time kill assay; assay type: functional
Staphylococcus aureus [15] = test: Antibacterial activity against vancomycin-resistant Staphylococcus aureus VRSA4 clinical isolate after 18 to 20 hrs by broth microdilution method; assay type: functional
Staphylococcus aureus [16] = test: Bactericidal activity against methicillin-resistant Staphylococcus aureus USA400 NRS123 clinical isolate after 24 hrs; assay type: functional; conditions: for MBC: USA400 NRS123, 24 h
HaCaT [17] = test: Cytotoxicity against human HaCaT cells assessed as decrease in cell viability up to 32 ug/ml after 2 hrs by MTS assay; assay type: cell-based
Staphylococcus aureus [18] = test: Antibacterial activity against methicillin/erythromycin/tetracycline-resistant Staphylococcus aureus USA300 NRS384 clinical isolate after 18 to 20 hrs by broth microdilution method; assay type: functional
Staphylococcus aureus [19] = test: Antibacterial activity against vancomycin-resistant Staphylococcus aureus VRSA10 clinical isolate after 18 to 20 hrs by broth microdilution method; assay type: functional
Staphylococcus aureus [20] = test: Bactericidal activity against vancomycin-resistant Staphylococcus aureus VRSA4 clinical isolate after 24 hrs; assay type: functional; conditions: VRSA4, 24 h
[21] = Half life in human liver microsomes after 10 to 60 mins in presence of NADPH by LC/MS/MS analysis; assay type: ADME, microsome
Staphylococcus aureus [22] = test: Bactericidal activity against vancomycin-resistant Staphylococcus aureus VRSA10 clinical isolate after 24 hrs; assay type: functional; conditions: VRSA10, 24 h
Staphylococcus aureus [23] = test: Potentiation of vancomycin-mediated antibacterial activity against vancomycin-resistant Staphylococcus aureus VRSA10 clinical isolate assessed as vancomycin MIC at 0.5 times MIC preincubated for 30 mins followed by vancomycin addition measured after 20 to 22 hrs (reference value: 512 ug/ml); assay type: functional
Staphylococcus aureus [24] = test: Potentiation of vancomycin-mediated antibacterial activity against vancomycin-resistant Staphylococcus aureus VRSA4 clinical isolate assessed as reduction in vancomycin MIC at 0.5 times MIC preincubated for 30 mins followed by vancomycin addition measured after 20 to 22 hrs relative to control; assay type: functional
HaCaT [25] = test: Cytotoxicity against human HaCaT cells assessed as decrease in cell viability up to 8 ug/ml after 2 hrs by MTS assay; assay type: cell-based
J774 = test: Cytotoxicity against mouse J774 cells assessed as decrease in cell viability at 8 ug/ml after 2 hrs by MTS assay; assay type: cell-based; conditions: j774, 2 h
HaCaT [26] = test: Cytotoxicity against human HaCaT cells assessed as decrease in cell viability up to 16 ug/ml after 2 hrs by MTS assay; assay type: cell-based

Row | Compound | MBC (Staphylococcus aureus [3]) | MIC (Staphylococcus aureus [4]) | MBC (Staphylococcus aureus [5]) | MIC (Staphylococcus aureus [6]) | MIC (Staphylococcus aureus [7]) | MBC (Staphylococcus aureus [9]) | MIC (Staphylococcus aureus [10]) | MBC (Staphylococcus aureus [11]) | MIC (Staphylococcus aureus [12]) | MIC (Staphylococcus aureus [15]) | MBC (Staphylococcus aureus [16]) | MIC (Staphylococcus aureus [18]) | MIC (Staphylococcus aureus [19]) | MBC (Staphylococcus aureus [20]) | MBC (Staphylococcus aureus [22]) | also measured
1 | CC(=O)CC(c1ccccc1)c1c(O)c2ccccc2oc1=O (centres undefined) [WARFARIN] | – | – | – | – | – | – | – | – | – | – | – | – | – | – | – | microsomal CLint [1]: < 9.6 µL/min/mg; microsomal CLint [2]: < 9.6 µL/min/mg
2 | CCC(CC)COc1ccc(-c2nc(C)c(/C(C)=N/NC(=N)N)s2)cc1 | 32 mg/L (≈ 85.7 µM) | 7.81 mg/L (≈ 20.9 µM) | > 64 mg/L | 32 mg/L (≈ 85.7 µM) | 32 mg/L (≈ 85.7 µM) | – | – | – | – | – | – | – | – | – | – | –
3 | CCCCCCOc1ccc(-c2nc(C)c(/C(C)=N/NC(=N)N)s2)cc1 | 2 mg/L (≈ 5.35 µM) | 0.35 mg/L (≈ 0.937 µM) | 2 mg/L (≈ 5.35 µM) | 2 mg/L (≈ 5.35 µM) | 1 mg/L (≈ 2.68 µM) | 4 mg/L (≈ 10.7 µM) | 4 mg/L (≈ 10.7 µM) | 8 mg/L (≈ 21.4 µM) | 4 mg/L (≈ 10.7 µM) | 4 mg/L (≈ 10.7 µM) | 16 mg/L (≈ 42.8 µM) | 4 mg/L (≈ 10.7 µM) | 4 mg/L (≈ 10.7 µM) | 4 mg/L (≈ 10.7 µM) | 4 mg/L (≈ 10.7 µM) | half-life [8]: > 4 h; Activity (HaCaT [13]): Toxic; Time (Staphylococcus aureus [14]): 24 h; Activity (HaCaT [17]): Non-Toxic; microsomal CLint [1]: < 9.6 µL/min/mg; half-life [21]: > 4 h; microsomal CLint [2]: < 9.6 µL/min/mg
4 | CCCCCCCOc1ccc(-c2nc(C)c(/C(C)=N/NC(=N)N)s2)cc1 | 1 mg/L (≈ 2.58 µM) | 0.74 mg/L (≈ 1.91 µM) | 1 mg/L (≈ 2.58 µM) | 1 mg/L (≈ 2.58 µM) | 0.5 mg/L (≈ 1.29 µM) | 2 mg/L (≈ 5.16 µM) | 2 mg/L (≈ 5.16 µM) | 2 mg/L (≈ 5.16 µM) | 2 mg/L (≈ 5.16 µM) | 2 mg/L (≈ 5.16 µM) | 4 mg/L (≈ 10.3 µM) | 2 mg/L (≈ 5.16 µM) | 2 mg/L (≈ 5.16 µM) | 2 mg/L (≈ 5.16 µM) | 2 mg/L (≈ 5.16 µM) | MIC (Staphylococcus aureus [23]): > 128 mg/L; fold change (FC) (Staphylococcus aureus [24]): 4; Activity (HaCaT [25]): Non-Toxic; Activity (J774): Toxic
5 | C/C(=N\NC(=N)N)c1sc(-c2ccc(OC3CCCC3)cc2)nc1C | 4 mg/L (≈ 11.2 µM) | 15.6 mg/L (≈ 43.7 µM) | 16 mg/L (≈ 44.8 µM) | 2 mg/L (≈ 5.59 µM) | 2 mg/L (≈ 5.59 µM) | 8 mg/L (≈ 22.4 µM) | 8 mg/L (≈ 22.4 µM) | 8 mg/L (≈ 22.4 µM) | 8 mg/L (≈ 22.4 µM) | 8 mg/L (≈ 22.4 µM) | 32 mg/L (≈ 89.5 µM) | 8 mg/L (≈ 22.4 µM) | 8 mg/L (≈ 22.4 µM) | 8 mg/L (≈ 22.4 µM) | 8 mg/L (≈ 22.4 µM) | Activity (Staphylococcus aureus [3]): Dose-dependent effect; Activity (Staphylococcus aureus [11]): Dose-dependent effect; Activity (Staphylococcus aureus [16]): Dose-dependent effect; Activity (Staphylococcus aureus [5]): Dose-dependent effect; Activity (HaCaT [26]): Non-Toxic
6 | C/C(=N\NC(=N)N)c1sc(-c2ccc(OCCCC(C)C)cc2)nc1C | 2 mg/L (≈ 5.35 µM) | 15.6 mg/L (≈ 41.8 µM) | 16 mg/L (≈ 42.8 µM) | 2 mg/L (≈ 5.35 µM) | 4 mg/L (≈ 10.7 µM) | 16 mg/L (≈ 42.8 µM) | 16 mg/L (≈ 42.8 µM) | 32 mg/L (≈ 85.7 µM) | 16 mg/L (≈ 42.8 µM) | 16 mg/L (≈ 42.8 µM) | 32 mg/L (≈ 85.7 µM) | 16 mg/L (≈ 42.8 µM) | 16 mg/L (≈ 42.8 µM) | 16 mg/L (≈ 42.8 µM) | 16 mg/L (≈ 42.8 µM) | –
7 | CC(=O)NC[C@H]1CN(c2ccc(N3CCOCC3)c(F)c2)C(=O)O1 [LINEZOLID] | 16 mg/L (≈ 47.4 µM) | – | 32 mg/L (≈ 94.9 µM) | – | – | 32 mg/L (≈ 94.9 µM) | – | 16 mg/L (≈ 47.4 µM) | – | – | 32 mg/L (≈ 94.9 µM) | – | – | 8 mg/L (≈ 23.7 µM) | 16 mg/L (≈ 47.4 µM) | –
8 | CCOc1ccc(-c2nc(C)c(/C(C)=N/NC(=N)N)s2)cc1 | – | > 30 mg/L | – | – | – | – | – | – | – | – | – | – | – | – | – | –
9 | CCCCCOc1ccc(-c2nc(C)c(/C(C)=N/NC(=N)N)s2)cc1 | – | 1.95 mg/L (≈ 5.42 µM) | > 64 mg/L | – | 64 mg/L (≈ 178 µM) | – | – | – | – | – | – | – | – | – | – | –

Reference: ChEMBL document CHEMBL4002577, “Phenylthiazole antibiotics: A metabolism-guided approach to overcome short duration of action” (Eur J Med Chem, 2017)
